In patent US8883963B2 (Cadila Healthcare Limited, priority 2007, dated 2014):
Starred links: 1 amine or outer side, 2 acyl side, 3 side chain; linkers in the order of their positions; H or OH if unused. Non-standard residues stand in square brackets, D forms with d. Residues, ends and D or L forms follow the SMILES beside them. ξ: configuration not given here. *: point of attachment. X8 = CCc1cc(OC)ccc1-c1ccc(CC(NC(=S)[C@H](CC(=O)O)N*)C(=S)NC(CCCc2ccccc2)C(N)=O)cc1; ξNMeBip(2'-Et,4'-OMe) = CCc1cc(OC)ccc1-c1ccc(CC(NC)C(=O)O)cc1; X4 = CCc1cc(OC)ccc1-c1ccc(CC(CNC(CCCc2ccccc2F)C(N)=O)N*)cc1; X7 = CCc1cc(OC)ccc1-c1ccc(CC(CNC(CCCc2ccccc2)C(N)=O)N*)cc1; ξBip(2'-Et-4'-OMe) = CCc1cc(OC)ccc1-c1ccc(CC(N)C(=O)O)cc1; X6 = O=C(C(CCCc1ccc(Cl)cc1Cl)N[*:1])[*:2]; X11 = CN(C(CCCc1ccccc1)C(=O)[*:2])[*:1]; ξαMePhe(2-F) = CC(N)(Cc1ccccc1F)C(=O)O; NMeD = CN[C@@H](CC(=O)O)C(=O)O; aThr = C[C@H](O)[C@H](N)C(=O)O; ξhhPhe = NC(CCCc1ccccc1)C(=O)O; ξαMeP = CC1(C(=O)O)CCCN1; Aib = CC(C)(N)C(=O)O; Moc = COC(=O)*

Molecular target: T1, human glucagon receptor (Homo sapiens, UniProt P47871)
T1 construct: The full-length cDNA was cloned in pcDNA3.1 (Invitrogen); expressed in transfected cells
Experiment: In vitro human glucagon antagonist activity (inhibition of cAMP production) in CHO/human glucagon R cells
Type: cell-based
Details: with saturated concentration of glucagon peptide
Protocol: The CHO-K1 cells (CRL 9618) were obtained from American Type Culture Collection (Rockville, Md.). CHO cells were grown in Ham's F12 medium containing L-Glutamine (2 mM), HEPES (25 mM), NaHCO3 (1.1 g/L) and supplemented with newborn Calf Serum (NBCS; 10%), Penicillin (50 U/ml (v/v)) and Streptomycin (50 ug/ml (v/v)). Cells were split every 3 days 1:8.
The full-length cDNA was cloned in pcDNA3.1 (Invitrogen). […] Clones expressing the receptor were generated by G418 (800 μg/ml active, Sigma) selection. The stable clones were thereafter maintained at 500 ug/ml (G418). The selected clone was used between passages 9-25 for cAMP assays.
The cells were trypsinized using 2 ml of TPVG (0.25% trypsin, 0.53 mM EDTA, 1.38-mM glucose). The trypsin was inactivated using Ham's F12 medium containing 10% NBCS and the cells were suspended in 2 ml of complete medium. […] The medium was aspirated off from the 12 well plate and the cells were washed once using Ham's F12 (plain). The cells were incubated at 37° C. with 500 ul of Ham's F12+1% BSA+0.125 mM RO-20 for 30 min. […] After the incubation, the medium was removed and cells were washed once with plain Ham's F12. Subsequently, the cells were lysed by adding 500 ul of ice cold 0.1 N HCl to each well and shaking for 30 minutes at 200 rpm. The cells were then scrapped, the lysate was collected in micro centrifuge tubes and centrifuged at 12000 rpm for 10 min to remove the debris. 300 ul of supernatant from each micro-centrifuge tube was then removed into a glass tube and dried under N2 for 30 min, for cAMP estimation. The total cAMP was estimated from the sample according to the manufacturer's protocol using Cyclic AMP immunoassay kit (R&D systems, Minneapolis. MN). The remaining supernatant is used to determine the protein concentration using micro BCA (Sigma). Data is calculated as percent of control (Vehicle: water) and expressed as Mean+SD.

T1 sequence (P47871 26-477): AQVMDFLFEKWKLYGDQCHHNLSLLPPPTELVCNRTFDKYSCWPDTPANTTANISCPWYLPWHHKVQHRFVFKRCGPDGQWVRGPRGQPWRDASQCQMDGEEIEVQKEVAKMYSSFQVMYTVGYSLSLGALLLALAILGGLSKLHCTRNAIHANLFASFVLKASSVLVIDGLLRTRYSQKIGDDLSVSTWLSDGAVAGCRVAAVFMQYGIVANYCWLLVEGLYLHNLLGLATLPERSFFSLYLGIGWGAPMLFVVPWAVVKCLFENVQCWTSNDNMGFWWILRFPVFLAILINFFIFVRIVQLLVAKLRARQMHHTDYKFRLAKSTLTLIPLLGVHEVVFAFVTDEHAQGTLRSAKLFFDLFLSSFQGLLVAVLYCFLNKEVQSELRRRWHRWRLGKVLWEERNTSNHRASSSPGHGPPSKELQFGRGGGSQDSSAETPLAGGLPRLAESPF

Compound	Human Glucagon receptor antagonistic activity shown as inhibition of cAMP production of Glucagon peptide (1 nM test compound) [pmol/ml/μg prt]	Human Glucagon receptor antagonistic activity shown as inhibition of cAMP production of Glucagon peptide (10 nM test compound) [pmol/ml/μg prt]	Human Glucagon receptor antagonistic activity shown as inhibition of cAMP production of Glucagon peptide (100 nM test compound) [pmol/ml/μg prt]	Human Glucagon receptor antagonistic activity shown as inhibition of cAMP production of Glucagon peptide (1 μM test compound) [pmol/ml/μg prt]	Human Glucagon receptor antagonistic activity shown as inhibition of cAMP production of Glucagon peptide (10 μM test compound) [pmol/ml/μg prt]
CCc1cc(OC)ccc1-c1ccc(CC(CNC(CCCc2ccccc2)C(N)=O)NC(=O)[C@H](CC(=O)O)NC(=O)[C@H](CO)NC(=O)[C@@H](NC(=O)C(C)(Cc2ccccc2F)NC(=O)[C@@H](NC(=O)CNC(=O)[C@H](CCC(N)=O)NC(=O)C(C)(C)NC(=O)[C@@H](N)Cc2c[nH]cn2)[C@H](C)O)[C@H](C)O)cc1 (stereo partly drawn) [compound 189] (H-H[Aib]QG[aThr][ξαMePhe(2-F)][aThr]SD-X7)	3 ± 0.12	1 ± 0.12	0	0	0
CCc1cc(OC)ccc1-c1ccc(CC(NC(=O)[C@H](CC(=O)O)NC(=O)[C@H](CO)NC(=O)[C@@H](NC(=O)[C@H](Cc2ccccc2)NC(=O)[C@@H](NC(=O)CNC(=O)[C@H](CCC(N)=O)NC(=O)C2(NC(=O)[C@@H](N)Cc3c[nH]cn3)CCCC2)[C@@H](C)O)[C@@H](C)O)C(=O)NC(CCCc2ccc(Cl)cc2C)C(N)=O)cc1 (single isomer, unassigned) [compound 28]	14 ± 0.02	11 ± 0.03	7 ± 0.22	3 ± 0.12	0
CCc1cc(OC)ccc1-c1ccc(CC(CNC(CCCc2ccccc2F)C(N)=O)NC(=O)[C@H](CC(=O)O)NC(=O)[C@H](CO)NC(=O)[C@@H](NC(=O)C(C)(Cc2ccccc2F)NC(=O)[C@@H](NC(=O)CNC(=O)[C@H](CCC(N)=O)NC(=O)C(C)(C)NC(=O)[C@@H](N)Cc2c[nH]cn2)[C@H](C)O)[C@H](C)O)cc1 (stereo partly drawn) [compound 191] (H-H[Aib]QG[aThr][ξαMePhe(2-F)][aThr]SD-X4)	4 ± 0.05	2 ± 0.13	2 ± 0.12	0	0
CCc1cc(OC)ccc1-c1ccc(CC(NC(=O)[C@H](CC(=O)O)NC(=O)[C@H](CO)NC(=O)[C@@H](NC(=O)[C@H](Cc2ccccc2)NC(=O)[C@@H](NC(=O)CNC(=O)[C@H](CCC(N)=O)NC(=O)[C@H](CO)NC(=O)[C@@H](N)Cc2c[nH]cn2)[C@@H](C)O)[C@@H](C)O)C(=O)NC(CCCc2ccc(Cl)cc2Cl)C(N)=O)cc1 (stereo partly drawn) [compound 51] (H-HSQGTFTSD[ξBip(2'-Et-4'-OMe)][X6]-NH2)	5 ± 0.09	3 ± 0.11	0	0	0
CCc1cc(OC)ccc1-c1ccc(CC(NC(=O)[C@H](CC(=O)O)NC(=O)[C@H](CO)NC(=O)[C@@H](NC(=O)[C@H](Cc2ccccc2)NC(=O)[C@@H](NC(=O)CNC(=O)[C@H](CCC(N)=O)NC(=O)C2(C)CCCN2C(=O)[C@@H](N)Cc2c[nH]cn2)[C@@H](C)O)[C@@H](C)O)C(=O)NC(CCCc2ccccc2)C(N)=O)cc1 (stereo partly drawn) [compound 9] (H-H[ξαMeP]QGTFTSD[ξBip(2'-Et-4'-OMe)][ξhhPhe]-NH2)	5 ± 0.02	3 ± 0.15	0	0	0
CCc1cc(OC)ccc1-c1ccc(CC(CNC(CCCc2ccccc2F)C(N)=O)NC[C@H](CC(=O)O)NC(=O)[C@H](CO)NC(=O)[C@@H](NC(=O)C(C)(Cc2ccccc2F)NC(=O)[C@@H](NC(=O)CNC(=O)[C@H](CCC(N)=O)NC(=O)C(C)(C)NC(=O)[C@H](Cc2c[nH]cn2)NC(C)=O)[C@H](C)O)[C@H](C)O)cc1 (single isomer, unassigned) [compound 199]	4 ± 0.06	3 ± 0.11	0	0	0
CCc1cc(OC)ccc1-c1ccc(CC(C(=O)N(C)C(CCCc2ccccc2)C(N)=O)N(C)C(=O)[C@H](CC(=O)O)N(C)C(=O)[C@H](CO)NC(=O)[C@@H](NC(=O)C(C)(Cc2ccccc2F)NC(=O)[C@@H](NC(=O)CNC(=O)[C@H](CCC(N)=O)NC(=O)C(C)(C)NC(=O)[C@H](Cc2c[nH]cn2)NC(=O)OC)[C@H](C)O)[C@H](C)O)cc1 (stereo partly drawn) [compound 150] (Moc-H[Aib]QG[aThr][ξαMePhe(2-F)][aThr]S[NMeD][ξNMeBip(2'-Et,4'-OMe)][X11]-NH2)	10 ± 0.12	8 ± 0.02	6 ± 0.04	4 ± 0.05	1 ± 0.02
CCc1cc(OC)ccc1-c1ccc(CC(NC(=O)[C@H](CC(=O)O)NC(=O)[C@H](CO)NC(=O)[C@@H](NC(=O)[C@H](Cc2ccccc2)NC(=O)[C@@H](NC(=O)CNC(=O)[C@H](CCC(N)=O)NC(=O)C2(C)CCCN2C(=O)[C@@H](N)Cc2c[nH]cn2)[C@@H](C)O)[C@@H](C)O)C(=O)NC(CCCc2cccc(Cl)c2)C(N)=O)cc1 (single isomer, unassigned) [compound 11]	3 ± 0.04	0	0	0	0
CCc1cc(OC)ccc1-c1ccc(CC(NC(=S)[C@H](CC(=O)O)NC(=O)[C@H](CO)NC(=O)[C@@H](NC(=O)C(C)(Cc2ccccc2F)NC(=O)[C@@H](NC(=O)CNC(=O)[C@H](CCC(N)=O)NC(=O)C(C)(C)NC(=O)[C@@H](N)Cc2c[nH]cn2)[C@H](C)O)[C@H](C)O)C(=S)NC(CCCc2ccccc2)C(N)=O)cc1 (stereo partly drawn) [compound 177] (H-H[Aib]QG[aThr][ξαMePhe(2-F)][aThr]S-X8)	0	0	0	0	0
